Structures are written as SMILES.

These results are taken from patent US20080213396A1, “Copper Lowering Treatment Of Cardiac Disease” (The Regents of the University of Michigan, priority 2007, published 2008).

In one data set the test system is Wilson's disease. The following applies: cited from earlier work.
A short description of data set [1]: Solubility and storage stability of TM salts. It is filed as physicochemical. The source says: In some embodiments, the salt of TM is an ammonium salt. […] Thus, the bulk drug should be stored in the absence of oxygen, or the oxygen will gradually exchange with the sulfur, rendering the drug ineffective over time. The bulk drug is therefore stored under argon.
Thus, other salts have been prepared and evaluated for solubility, stability and anticopper activity. […] In other embodiments, the salt choline TM has suitable desirable properties. In yet other embodiments, the salt tetraethyl TM has suitable properties. These exemplary salts of TM have suitable solubility in water, and behave similarly to ammonium salt of TM in in vitro copper complexing studies.

The conditions of data set [2]: stability assays developed by the inventors (Brewer et al. 1991); cited from earlier work.
A further data set deals with DXR toxicity. Description: TM therapy copper supplementation doxorubicin study. The format is in vivo, mice. As for the experimental part:
(§1) Mice and mouse food. All mice were 7-8 weeks old at the start of the various studies, were C57BL/6 purchased from Jackson Laboratory, Bar Harbor, Me., and were housed at 21±2° C. on a 12 hr light/dark cycle in polycarbonate cages containing corn cob bedding. Experimental animals were housed in the University of Michigan Unit for Laboratory Animal Medicine facility and treated in accord with a protocol approved by the University of Michigan Institutional Animal Care and Use Committee. They were fed a mouse diet from Harlan/Teklad, Madison, Wis., to which copper and zinc had not been added by the manufacturer. Each lot was assayed by atomic absorption and found to contain about 0.6 mg of copper and about 6.0 mg of zinc/kg of food. Copper and zinc are then added to the diet such that the final contents were 2 mg copper and 10 mg zinc/kg of food.
TM therapy copper supplementation doxorubicin study. In order to verify that the effect of TM in the DXR study was due to lowering copper, a study of DXR toxicity was done in which a TM treated group was supplemented with excess copper. In this study, 20 mice were divided into four equal groups, 5 to receive 0.015 mg/ml of TM in the drinking water to lower Cp and then receive DXR (TM was given by gavage after DRX), 5 to receive TM in the same dose and manner as the first group but the diet was supplemented with either 30 or 100 ppm copper such that the Cp didn't fall as far as with TM alone, and then they received DXR, 5 to receive DXR only, and 5 served as controls. After Cp was decreased in the first group, DXR in an intraperitoneal dose of 20 mg/kg body weight was given to the first three groups of mice. Four days after DXR the mice were sacrificed and serum Cp, troponin I, and LDH determined.
(§2) Assay Methods. Cp was measured by the oxidase enzyme using known methods. Troponin I, LDH, and CK MB were measured by kit methods using known methods.
(§3) Statistical Analysis. For the comparison of means analysis of variance (ANOVA) was used. All data in the figures are given as means+the standard error.

Data set [3] has as its system doxorubicin model of heart damage. Briefly: Zinc vs. TM therapy mouse doxorubicin study. It is filed as in vivo, C57BL/6 mice. To be noted: for day 4 troponin I plasma level: FIG. 2; for day 4 CK MB plasma level: FIG. 3; for plasma Cp at day 0 (day of DXR administration): after pretreatment to lower Cp. As to the method:
as §1
Zinc vs. TM therapy mouse doxorubicin study. The zinc depot method involved injecting subcutaneously a 20 mg zinc/mL of corn oil suspension to achieve a dose of 110 mg of zinc/kg of mouse weight, weekly. With this method, Cp levels were lowered to target range in 4 weeks. Cp levels were lowered with TM in a second group of mice by using 0.015 mg/ml of TM in the drinking water, and changing the drinking water every day.
20 male mice were divided into four equal groups, 5 to receive depot zinc and then DXR, 5 to receive TM in the drinking water and then DXR, 5 to receive DXR only, and 5 to serve as controls. After Cp levels had been lowered in the first two groups, the first three groups of mice received DXR intraperitoneally at a single dose of 20 mg/kg body weight. Since DXR toxicity inhibits mice from drinking water, after DXR administration, TM mice were treated with a daily gavage of 0.2 mg of TM in 0.1 ml of water. Four days after DXR, all mice were sacrificed, and Cp, troponin I, creatine kinase (CK) MB, and lactic dehydrogenase (LDH) levels were all measured in the plasma according to previously described methods.
as §2, §3

The test system of data set [4] is DXR induced cardiotoxicity and myocardial fibrosis. Description: Trientine mouse doxorubicin study. The format is in vivo, mice. As to the method:
as §1, with “Each lot was assayed by atomic absorption and found to contain about 0.6 mg of copper and about 6.0 mg of zinc/kg of food.” left out
Trientine mouse doxorubicin study. The copper chelator trientine was studied and compared to TM to determine the effects, if any, of trientine on DXR induced cardiotoxicity and myocardial fibrosis in mice using doses of trientine by oral gavage to lower the Cp to target range.
as §2, §3

In data set [5] the test system is myocardial toxicity resulting from administration of doxorubicin HCl. The following applies: administered contemporaneously with doxorubicin HCl; cited from earlier work.
A further data set has as its system doxorubicin toxicity. To be noted: mice, previously found; cited from earlier work.
The mark [6] stands for this setting: 4 days after DXR, vs DXR controls.

In the case of `[Mo]` [Mo, molybdenum], in the data set on Wilson's disease (human, in vivo), the “toxicity of high doses” value is “without toxicity”.
On to `[NH4+].[NH4+].[SH-].[SH-].[S]=[Mo]=[S]` [TM as the ammonium salt], for which, in data set [1], the solubility in water result is listed as “moderately water soluble”. Further, in data set [1] (bulk drug), the stability in air result is recorded as “mild air instability”. The stability in capsules result in data set [1] (room temperature) is “stable in capsules for several months at room temperature”. Besides, the “stability of bulk drug under argon” value in data set [2] was “stable for several years under argon”.
Consider `[SH-].[SH-].[S]=[Mo]=[S]` [TM, tetrathiomolybdate], for which the “Cp value on day zero (day of DXR administration)” value with DXR toxicity (group average, DXR only group about 25 U/L) is “about 12 U/L”. Moreover, the “plasma LDH at day 4 after DXR” value in the data set on DXR toxicity (vs DXR only animals, FIG. 6) was “statistically significantly lower than in the DXR only animals”. Also, in the data set with DXR toxicity (vs DXR only animals, FIG. 7), the “mean troponin I level at day 4 after DXR” value is “less than half of the DXR only animals”. Also, the “plasma Cp at day 4 (day of sacrifice), increase after DXR” value in data set [3] (4 days after DXR 20 mg/kg i.p., FIG. 1) is reported as “almost completely prevented”. Also, in data set [3] (setting [6]), the “day 4 troponin I plasma level” value is listed as “statistically significant effect on maintaining a lower troponin I” and the “day 4 CK MB plasma level” value is listed as “statistically significantly lower value than DXR controls”. In addition, the “day 4 LDH plasma level” value in data set [3] (4 days after DXR, vs DXR controls, FIG. 4) is listed as “statistically significant effect on maintaining lower values than DXR controls”. For the same compound, the “plasma Cp at day 0 (day of DXR administration)” value in data set [3] (FIG. 1) was “equal suppression of Cp”. The “protection against cardiac damage, comparison with zinc” value in data set [3] (similar levels of copper lowering at the time of doxorubicin exposure) was “much more effective than zinc”. For the same compound, in the data set with Wilson's disease (Wilson's disease work), the toxicity in humans entry was “extremely low level of toxicity”. The “effect on neurological worsening during initial treatment” value in the data set on Wilson's disease (Wilson's disease) was “prevents the neurological worsening”. Further, the “protection of the heart against doxorubicin toxicity, comparison with trientine” value in data set [4] (same animal model) is “much more effective than trientine”.
In the case of `CCC[N+](CCC)(CCC)CCC.CCC[N+](CCC)(CCC)CCC.[S]=[Mo](=[S])([S-])[S-]` [TPTM, tetrapropyl tetrathiomolybdate], in data set [1], the “solubility, stability and anticopper activity, overall” value is listed as “has met all desired properties”.
Consider `C[C@@H](CN1CC(=O)NC(=O)C1)N1CC(=O)NC(=O)C1` [dexrazoxane, (S)-(+)-bis-4,4′-(1-methyl-1,2-ethanediyl)2,6-piperazinedione], for which the “effect on myocardial toxicity of doxorubicin HCl” value in data set [5] is on record as “can reduce or prevent the myocardial toxicity”.
For the compound `CC(C)(S)[C@@H](N)C(=O)O` [penicillamine, reference compound], the “neurological worsening during initial treatment” value with Wilson's disease (Wilson's disease, share of the time) is recorded as 50%.
Turning to `NCCNCCNCCN` [trientine], in data set [4] (FIG. 5B), the “effect on LDH” value was “no protective effect”. The “effect on CK-MB” value in data set [4] (FIG. 5C) is listed as “no protective effect”. For the same compound, the “effect on Troponin 1” value in data set [4] (FIG. 5D) is given as “statistically insignificant effect”. Further, the “Cp at day 4 (4 days after DXR)” value in data set [4] (continued trientine therapy by oral gavage, FIG. 5A) was “increased into the normal range”. The “Cp at day 0 (when DXR is given)” value in data set [4] (pretreated by oral gavage, FIG. 5A) is “down significantly, into the target range”.
Turning to `[Zn]` [zinc, reference compound], the “effect on doxorubicin toxicity” value in the data set with doxorubicin toxicity is given as “attenuates doxorubicin toxicity”. Also, in data set [3] (setting [6]), the “day 4 troponin I plasma level” value was “somewhat lower mean value than controls, but it didn't reach statistical significance” and the “day 4 CK MB plasma level” value is given as “no effect”. Also, the “plasma Cp at day 0 (day of DXR administration)” value in data set [3] (FIG. 1) is recorded as “equal suppression of Cp”. Moreover, in data set [3] (zinc depot s.c. 110 mg zinc/kg weekly), the “time until Cp levels lowered to target range” value turned out to be 4 weeks.
